Results from US9321717B2, “Process for rapid identification and preparation of crystalline forms” (Allergan, Inc., priority 2011, dated 2016).
“Also recorded” adds a separate entry of the source.

Columns and labels:
[1] = Form risk assessment (FRA) crystallization workflow with XRPD form identification; type: physicochemical; details: for FRA_TC: forms from thermocycled slurrying; for Forms Found by FRA: model compounds, crystalline, used as received, * = low energy form; for FRA_EV: forms from evaporation
Description: However, certain basic elements of the polymorph screening experiments are incorporated, such as solubility estimation, solvent-mediated form transformation, as well as super saturation adjustment by cooling, antisolvent addition, and evaporation, etc. The following procedure outlines the logical steps of performing an FRA experiment: • 1. Determine the physicochemical properties of the starting material (compound as received) • 2. Estimate the solubilities of the compound in twenty-four solvents with diverse solvent properties. • 3. Design approximately sixteen crystallization experiments with appropriate solvent systems based on the results of the solubility estimations. • 4. Prepare the crystallization samples and examine their solubilities in the sixteen solvent systems at elevated temperature. • 5. Conduct the crystallization experiment according to the designed workflow. • 6. Characterize and analyze the materials isolated from the crystallization experiments.
The solubility of the API is visually estimated by the “dynamic method” in each of the twenty-four solvents. This method is used to quickly bin the solvents into different categories, such as good solvents, poor solvents, and intermediates. The following describes the general procedure of the solubility estimation: • 1. Place weighed amounts of drug in clear glass vials to which incremental volumes (20-500 μL) of solvent are added until the solution turns clear. • 2. Apply brief vortexing after each solvent addition. • 3. Calculate the approximate visual solubility of the drug in a solvent by recording the amount of solvent required to completely dissolve the known weight of drug. The preferred unit of solubility is mg/mL.
The suspensions of the drug substance in a variety of solvent systems will be subjected to temperature-cycled slurrying, which is the primary crystallization method. Sixteen sample slurries for thermo-cycled experiments should be prepared with caution to avoid complete dissolution of the solid at elevated temperatures. For slurry with a single solvent system, the initial composition should have approximately 5-10 times higher concentration than the estimated solubility value at ambient temperature. For slurry in a solvent mixture, a suspension of the compound in the antisolvent should first be prepared and followed by the introduction of the solvent to adjust the solubility. The final antisolvent to solvent volume ratio is typically between 3 and 10. Record the amount of compound initially added and the volumes of added solvent aliquots.
Appendix 1 summarizes the typical temperature programs for each experiment. Usually three heat-cool-heat temperature cycles are used. The initial fast thermocycling runs help preliminarily assessing the dissolution behavior of the samples. The slow thermocycling runs focus on generating crystals and increasing the crystallinity and form purity.
If the sample remains a clear solution after the initial thermocycling, the solution is cooled to induce super saturation. During cooling, the original solution may become supersaturated and further reach the metastable limit when spontaneous crystallization starts. Usually the final temperature is 5° C. and the cooling rate is 0.1° C. per minute to facilitate crystal growth.
If the sample is still a clear solution at 5° C., the sample vial will be transferred into a −20° C. freezer for at least 2-3 days. The sample should be regularly examined by visual inspection and/or polarized light microscope for signs of solid formation.
The antisolvents identified during the initial solubility estimation can be used for adjusting the solubility of the drug substance in the primary solvent. The combination of a solvent with a miscible antisolvent provides a continuous solvent space, which potentially maximizes the possibility of capturing a crystalline form. […]

[2] = model compounds; * = low energy form; cited from earlier work

SMILES	FRA_TC [1]	Forms Found by FRA [1]	Reported Forms in the Literature [2]	FRA_EV [1]	FRA_AS ([1]; forms from antisolvent addition)	forms identified or generated by FRA [1]
Nc1ccc(S(=O)(=O)Nc2nccs2)cc1 [Sulfathiazole]	I, II, III, IV	I, II, III*, IV*	I, II, III*, IV*, V	–	–	–
COC(=O)Nc1nc2ccc(C(=O)c3ccccc3)cc2[nH]1 [Mebendazole]	A, B, C	A*, B, C	A*, B, C	–	–	–
CN1C(C(=O)Nc2ccccn2)=C(O)c2ccccc2S1(=O)=O [Piroxicam]	I, II,; also recorded: hydrate	I*, II, hydrate	I*, II, III, hydrate	I, II	–	–
NC(=O)N1c2ccccc2C=Cc2ccccc21 [Carbamazepine (E), Carbamazepine]	α, β, γ	α*, β*, γ	α*, β*, γ,; also recorded: dihydrate, solvate	γ	–	–
COc1ccc2c(c1)c(CC(=O)O)c(C)n2C(=O)c1ccc(Cl)cc1 [Indomethacin]	α, β, γ	α, β, γ*	α, β, γ*	–	–	–
O=C(c1ccccc1)c1ccc2n1CCC2C(=O)O (stereo not shown) [Ketorolac free acid]	–	I*, solvate	I*, II, III, solvate	–	solvate	–
O=C(O)c1cc(-c2ccc(F)cc2F)ccc1O [Diflunisal]	I, II, III, IV	–	–	I, IV,; also recorded: solvate	–	–
CCCCCCCCCCCCCCCCCC(=O)O [Stearic acid (E), Stearic acid]	B, C	B*, C*	A, B*, C*, E	–	–	both enantiotropic polymorphs
NC(N)=Nc1nc(CSCCC(N)=NS(N)(=O)=O)cs1 [Famotidine]	A, C	A*, B, C; also recorded: (new form)	A*, B	A, C	–	–
CCNC(=O)CCC/C=C\C[C@@H]1[C@@H](/C=C/[C@@H](O)CCc2ccccc2)[C@H](O)C[C@@H]1O [bimatoprost, Bimatoprost]	–	–	–	–	–	capture both forms
